# Results published in patent publication US4442093A, “Method for administering 24,25-dihydroxycholecalciferol to persons suffering from hypercalcemia” (Kureha Kagaku Kogyo Kabushiki Kaisha, priority 1981, dated 1984).
# No end group written: not given here.
# Columns and labels:
# [1] = system: calcium level in serum; assay: Prevention of hypercalcemia in rats administered with 1-α-(OH)-D3 (Example 4); type: in vivo, male Wistar rats; settings: 1-α-(OH)-D3 10 µg/kg i.p. alone
# Excerpt: In the present example, it is shown that 24R,25-(OH)2 -D3 has a function of preventing the occurrence of hypercalcemia on rats administered with 1-α-hydroxycholecalciferol (hereinafter referred to as 1-α-(OH)-D3).
# Six subgroups of male Wistar rats of 130±30 g of body weight were subjected to the test while dividing the rats into 3 groups, each group consisting of 2 subgroups and each subgroup consisting of 5 animals. To the rats of the first group, after fasting for a night, an ethanolic solution of 1-α-(OH)-D3 was intraperitoneally administered at a dose rate of 10 micrograms of 1-α-(OH)-D3 /kg body weight. To the rats of the second group, a solution of 24R,25-(OH)2 -D3 in the triglyceride ester used in Example 1 was orally administered at a dose rate of 100 micrograms/kg body weight simultaneously with the same administration of 1-α-(OH)-D3 as in the rats of the first group.
# The third group of the rats was used for control only with the oral administration of the triglyceride ester used in Example 1.
# [2] = system: mononucleates (lymphocytes) of peripheral blood; assay: Blastoid-transformation of rat lymphocytes in peripheral blood, 3H-TdR uptake (Example 13); type: in vivo
# Experimental: The effect of the present compound on the blastoid-transformation of rat lymphocytes in the peripheral blood was examined as follows: After mixing each of the blood specimens taken from the respective rats of the four groups in Example 11 added with heparin and RPMI-1640 culture medium at a weight ratio of 1:1, the mixture was added to Ficoll-Paque solution, and the thus obtained mixture was subjected to centrifugal separation at 400 G for 20 min to collect the layer of mononucleates. After washing the thus collected mononucleates three times with PRMI-1640 culture medium (in a liquid state), the washed mononucleates were suspended into RPMI-1640 culture medium added with 10% by weight of calf serum to be in concentration of 1.5×10^6 cells/ml. Hundred microliters of the thus prepared suspension was placed in the pit of Pharcon microtest II plate, and after adding a substance promoting cell division (hereinafter referred to as mitogen) and RPMI-1640 culture medium added with 10% by weight of calf serum to the thus placed suspension to make the total volume 200 microliters, the thus prepared mixture was incubated for 72 hours under a gas (a 95:5 by volume mixture of air and carbon dioxide saturated with moisture) flow at 37° C. ^3 H-methylthymidine of specific activity of 5 Ci/mmol was added to the mixture during incubation at the time 24 hours before the incubation was over in an amount corresponding to 0.5 micro Ci. After the incubation was over, the cells in the culture were collected by filtering the cultured mixture, and the amount of radioactive isotope uptaken into the cells was determined by a liquid scintillation counter. For reference, the mitogen used in the present test is concanavalin A for T-cell or lipopolysaccharide for B-cell.
# [3] = system: gastric ulcer; assay: Prevention of gastric ulcer due to pyloric ligation (Example 9); type: in vivo, male Wistar rats; settings: 200 µg/kg i.p. once after pyloric ligation, 15 h
# Experimental: Twenty male Wistar rats of average body weight of 250 g were divided equally into two groups, and used in the following test:
# After 36 hour fasting, all the rats were subjected to pyloric ligation, and the rats of the first group were administered with 2 ml/kg of Panacete®810 (triglyceride ester of C8 and C10 -fatty acid, made by Nippon Oil & Fats Co., Ltd.) containing 0.2% by weight of ethanol intraperitoneally once just after ligation. The rats of the second group were administered with 24R,25-(OH)2 -D3 dissolved in Panacete®810 containing 0.2% by weight of ethanol intraperitoneally at a dose rate of 200 micrograms/kg body weight once just after ligation. After 15 hours of administration, all the rats were subjected to gastrectomy, and the presence or absence of the gastroparietal ulcer was examined on all the resected stomach.
# As a result, the occurrence of gastric ulcer was found on 9 rats of 10 rats of the first group, and on 2 rats of 10 rats of the second group.
# In a similar test, 24S,25-(OH)2 -D3 was used instead of 24R,25-(OH)2 -D3 to examine its effect in preventing the occurrence of gastric ulcer due to pyloric ligation. As a result, the occurrence of gastric ulcer was recognized on 3 rats of 10 rats of the group similarly treated to those of the second group.
# [4] = system: thymic cells; assay: Pattern of the size of thymic cells by FACS (Example 12); type: in vivo, rats; settings: 100 µg/kg/day oral 12 days with puromycin aminonucleoside
# Experimental: After feeding the rats (the same number and the same grouping) of the same strain and treating them in the same manner as in Example 11, their thymus was resected, and an analysis of the pattern of the size of the thymic cells was carried out while using Fluorescence Activated Cell Sorter (FACS II, made by Becton-Dickinson Co.) as follows:
# After loosing the resected thymus in phosphate buffer solution sufficiently with a pincette, pipetting well and passing the mixture through a standard #200 Tyler stainless steel mesh, the filtrate was treated with an aqueous 0.83% by weight ammonium chloride buffer solution containing tris-hydroxyaminomethane to carry out hemolysis of the erythrocytes intermingled therein followed by three times of washing with the phosphate buffer solution. After adjusting the concentration of the thus obtained thymic cell to 5×10^6 cells/ml with the addition of the phosphate buffer solution, the abovementioned analysis was carried out. The ratio of the number of living thymic cells to the total number of the thus obtained thymic cells was confirmed to be higher than 95% after staining with trypan blue and counting under microscope.
# [5] = system: thymus; assay: Weight ratio of thymus to body and number of thymocytes in rats given puromycin aminonucleoside (Example 11); type: in vivo, male JCL-Wistar rats; settings: 100 µg/kg/day oral 12 days with puromycin aminonucleoside 15 mg/kg s.c.
# Experimental: Thirty-two male JCL-Wistar rats in tenth week after birth were used in the present test while keeping them in a room at 21±1° C. and 60±5% RH with solid diet (CE 2) and water taken ad lib.
# They were divided equally into 4 groups (one group consisting of 8 animals), their treatments in the test being as follows:
# subcutaneous injection of puromycin aminonucleoside as in the second group and oral administration of 24R,25-(OH)2 -D3 dissolved in Panacete 810 once a day at a daily dose rate of 100 micrograms/kg for continuous 12 days.
# subcutaneous injection of puromycin aminonucleoside as in the second group and oral administration of 24S,25-(OH)2 -D3 dissolved in Panacete 810 once a day at a daily dose rate of 100 micrograms/kg for continuous 12 days.
# After uniformly loosing the thymus in phosphate buffer solution with a forcets and fully pipetting, the mixture was filtered through a stainless steel mesh (Tylar standard #200) and the filtrate containing the thymic cells was stained with Turk's solution. The thus stained specimen was subjected to counting under a microscope.
# [6] = system: ulcer found on the duodenum; assay: Healing of acetic acid induced duodenal ulcer (Example 10); type: in vivo, male rats; settings: 20 µg/kg/day oral, 10 days
# Experimental: Fourty five male rats of body weight of 240 to 260 g were equally divided into three groups, each consisting of 15 animals, and they were subjected to an operation following the method of Okabe et al. (refer to Amer. J. Dig. Dia., 16, 277, 1971), in which under anesthesia by ether, a circular frame made of a metal was placed on the serosa 5 to 7 mm from the pylorus and 0.06 ml of gracial acetic acid was poured onto the round part within the frame and after 30 sec, the acetic liquid was removed with the frame.
# The thus operated rats of the first group were administered orally with a suspension of […] of 24R,25-(OH)2 -D3 in Panacete®810 containing 0.2% by weight of ethanol once a day for continuous 10 days from the third day of the operation at a daily dose rate of 20 micrograms of 24R,25-(OH)2 -D3 /kg. To the thus operated rats of the second group (control), only Panacete®810 was orally administered at a daily dose rate of 2 ml/kg for continuous 10 days.
# The thus operated rats of the third group were used in the comparative test. Namely, they were treated in the same manner as those of the first group except for administration of gefarnate (3,7-dimethyl-2,6-octadienyl-5,9,13-trimethyl-4,8,12-tetradecatrienoate) at a daily dose rate of 20 microgram/kg body weight in stead of 24R,25-(OH)2 -D3 in the first group.
# After finishing the final administration, all the rats were sacrificed by ether and their duodenum was taken out for autopsy. The length and the width of the ulcer found on the duodenum were measured, and their product with a unit of mm^2 was taken and named as the ulcer coefficient. The rate of healing of the ulcer was calculated by the following formula: [formula] wherein C is the ulcer coefficient of control and U is the ulcer coefficient of the group to which the present compound was administered.
# [7] = system: inorganic phosphate level in serum; settings: after its administration; cited from earlier work
# [8] = system: calcium level in serum; assay: Serum calcium in rats made hypercalcemic with Vitamin D3 (Example 1); type: in vivo, male Wistar rats; settings: for Calcium level in serum: 24R 100 µg/kg oral, calcitonin 4 MRCU/kg s.c.
# Experimental: To 16 subgroups of male Wistar rats of body weight of 150±40 g (one subgroup consisting of 5 rats), a solution of Vitamin D3 dissolved in corn oil at 600 micrograms/ml was orally administered once a day for continuous 4 days at a daily dose rate of 0.5 ml/100 g body weight to prepare the rats artifically suffering from hypercalcemia. After one day's fasting from the final administration of Vitamin D3, the calcium level in the serum of each rat of the first subgroup was on the average 13.5±0.4 mg/dl. The remaining 15 subgroups of the rats were divided into 3 groups each consisting of 5 subgroups and subjected to the following tests.
# To the rats of the second group, a solution of porcine calcitonin in a physiological saline solution containing 4% by weight of gelatin was subcutaneously injected at a dose rate of 4 MRCU/kg body weight instead of the solution of 24R,25-(OH)2 -D3 and they were treated as those of the first group.
# To the rats of the third group, only the same triglyceride ester as in the first group was orally administered, and they are treated in the same manner as in the first group.
# The calcium level of the respective sera of the thus collected blood was determined by OCPC method (Orthocresol Phthalein Complexone method) and shown in Table 1.
# [9] = 100 µg/kg/day oral 12 days with puromycin aminonucleoside
compound,measurement,setting,value
"C=C1/C(=C\C=C2/CCC[C@]3(C)[C@@H]([C@H](C)CCCC(C)C)CC[C@@H]23)C[C@@H](O)C[C@@H]1O [1-α-(OH)--D3, 1-α-hydroxycholecalciferol, reference compound]",Calcium level in serum,[1]; after 10 hours,13.4 ± 0.6 mg/dL
same,Calcium level in serum,[1]; after 18 hours,14.5 ± 0.5 mg/dL
"C=C1CC[C@H](O)C/C1=C/C=C1\CCC[C@]2(C)[C@@H]([C@H](C)CC[C@H](O)C(C)(C)O)CC[C@@H]12 [24S,25-(OH)2 -D3]",Uptake of 3H-TdR in presence of Concanavalin A,[2]; [9],3582 ± 362 cpm
same,Uptake of 3H-TdR in presence of Lipopolysaccharide,[2]; [9],3126 ± 351 cpm
same,"Number of mononucleate (ratio, first group = 1.00)","[2]; po, 0.1 mg/kg, 288 h",0.58 ± 0.15
same,occurrence of gastric ulcer,[3],3 rats of 10 rats
same,number ratio of cells a little larger than normal cell to total thymic cells,[4],the same as that of the control group
same,Number of thymocytes,[5],(30 ± 4.5) × 10^7
"CC(C)=CCCC(C)=CCCC(C)=CCCC(=O)OCC=C(C)CCC=C(C)C [gefarnate, 3,7-dimethyl-2,6-octadienyl-5,9,13-trimethyl-4,8,12-tetradecatrienoate, reference compound]",ulcer coefficient,[6],7.5 mm^2
same,rate of ulcer healing,[6]; vs control,0%
"calcitonin: porcine calcitonin in physiological saline solution containing 4% by weight of gelatin (CSNLSTCVLSAYWRNLNNFHRFSGMGFGPETP; ends and bridges not checked; cysteine pairing not given here; UniProt P01259 1-32, looked up)",duration of strong reduction of serum inorganic phosphate level,[7],2 to 3 h
same,effect on raised serum calcium after 2 hours,[8]; 4 MRCU/kg s.c.,its effect was not recognized after 2 hours of its administration
same,Calcium level in serum,[8]; 2 h after administration,10.8 ± 0.5 mg/dL
same,Calcium level in serum,[8]; 5 h after administration,13.0 ± 0.4 mg/dL
same,Calcium level in serum,[8]; 8 h after administration,13.4 ± 0.4 mg/dL
same,Calcium level in serum,[8]; 12 h after administration,13.9 ± 0.5 mg/dL
same,Calcium level in serum,[8]; 24 h after administration,13.4 ± 0.4 mg/dL
